Assay results published in patent publication US9137998B2, “Pesticidal compositions and related methods” (DOW AGROSCIENCES LLC, priority 2013, dated 2015).

Assays:
[1] = tested on: Green Peach Aphid (Myzus persicae) (GPA) (MYZUPE); experiment: Bioassay for Green Peach Aphid (GPA), foliar spray on cabbage seedlings; type: in vivo; settings: 200 ppm foliar spray, graded after three days, Abbott corrected % control; for mortality at 200 ppm: Myzus persicae, 72 h, read-out: % Control (or Mortality) rating, GPA
Experimental: Cabbage seedlings grown in 3-inch pots, with 2-3 small (3-5 cm) true leaves, were used as test substrate. The seedlings were infested with 20-50 GPA (wingless adult and nymph stages) one day prior to chemical application. Four pots with individual seedlings were used for each treatment. Test compounds (2 mg) were dissolved in 2 mL of acetone/methanol (1:1) solvent, forming stock solutions of 1000 ppm test compound. The stock solutions were diluted 5× with 0.025% Tween 20 in H2O to obtain the solution at 200 ppm test compound. A hand-held aspirator-type sprayer was used for spraying a solution to both sides of […] leaves until runoff. Reference plants (solvent check) were sprayed with the diluent only containing 20% by volume of acetone/methanol (1:1) solvent. Treated plants were held in a holding room for three days at approximately 25° C. and ambient relative humidity (RH) prior to grading. Evaluation was conducted by counting the number of live aphids per plant under a microscope. Percent control was measured by using Abbott's correction formula (W. S. Abbott, “A Method of Computing the Effectiveness of an Insecticide” J. Econ. Entomol. 18 (1925), pp. 265-267) as follows. Corrected % Control=100*(X−Y)/X
X=No. of live aphids on solvent check plants and
Y=No. of live aphids on treated plants
Biological Data for Green Peach Aphid (GPA) (MYZUPE) and Sweetpotato Whitefly-crawler (WF) (BEMITA)” (See Table Section).

[2] = tested on: Sweetpotato Whitefly-Crawler (Bemisia tabaci) (WF) (BEMITA); experiment: Insecticidal test for Sweetpotato Whitefly-crawler (WF) in foliar spray assay on cotton plants; type: in vivo; settings: 200 ppm foliar spray, graded after 9 days, Abbott corrected % control; for mortality at 200 ppm: Bemisia tabaci, 216 h, read-out: % Control (or Mortality) rating, WF
Experimental: Cotton plants (Gossypium hirsutum) grown in 3-inch pots, with 1 small (4-5 cm) true leaves, were used as test substrate. The plants were infested with 200-400 whitefly eggs 4-5 days prior to chemical application. Four pots with individual plants were used for each treatment. Test compounds (2 mg) were dissolved in 1 mL of acetone solvent, forming stock solutions of 2000 ppm test compound. The stock solutions were diluted 10× with 0.025% Tween 20 in H2O (diluents) to obtain the solution at 200 ppm test compound. A hand-held aspirator-type sprayer was used for spraying a solution to both sides of cotton leaves until runoff. Reference plants (solvent check) were sprayed with the diluent only containing 10% by volume of acetone solvent. Treated plants were held in a holding room for 9 days at approximately 25° C. and ambient relative humidity (RH) prior to grading. Evaluation was conducted by counting the number of live 3-4 nymph stage per plant under a microscope. Percent control was measured by using Abbott's correction formula (W. S. Abbott, “A Method of Computing the Effectiveness of an Insecticide” J. Econ. Entomol. 18 (1925), pp. 265-26′7) as follows. Corrected % Control=100*(X−Y)/X
X=No. of live nymphs on solvent check plants and
Y=No. of live nymphs on treated plants. […]

melting point [°C]	Compound	mortality at 200 ppm [1] [%]	mortality at 200 ppm [2] [%]	% Control (or Mortality) rating, GPA [1]	% Control (or Mortality) rating, WF [2]
82 to 86	C#CCN(C(=O)OC(C)(C)C)c1sc(Br)nc1C [CA4, tert-Butyl (2-bromo-4-methylthiazol-5-yl)(prop-2-yn-1-yl)carbamate]				
80 to 83	C#CCN(C(=O)OC(C)(C)C)c1sc(-c2cncnc2)nc1Cl [CA10, tert-Butyl (4-chloro-2-(pyrimidin-5-yl)thiazol-5-yl)(prop-2-yn-1-yl) carbamate]				
	C#CCN(C(=O)CC[S+]([O-])CCC(F)(F)F)c1sc(-c2cncnc2)nc1Cl (stereo not shown) [FA8, N-(4-Chloro-2-(pyrimidin-5-yl)thiazol-5-yl)-N-(prop-2-yn-1-yl)-3-((3,3,3-trifluoropropyl)sulfinyl)propanamide]	80 to 100	80 to 100		
	C#CCN(C(=O)OC(C)(C)C)c1sc(-c2cccnc2)nc1Cl [Compound C3, tert-butyl (4-chloro-2-(pyridin-3-yl)thiazol-5-yl)(prop-2-yn-1-yl)carbamate]	80 to 100	80 to 100		
	C#CCN(C(=O)CCS(=O)(=O)CCC(F)(F)F)c1sc(-c2cccnc2)nc1C [Compound P8, N-(4-Methyl-2-(pyridin-3-yl)thiazol-5-yl)-N-(prop-2-yn-1-yl)-3-((3,3,3-trifluoropropyl)sulfonyl) propanamide]	80 to 100	80 to 100		
	C#CCN(C(=O)C(C)SC)c1sc(-c2cccnc2)nc1Cl (stereo not shown) [Compound F6, N-(4-chloro-2-(pyridin-3-yl)thiazol-5-yl)-2-(methylthio)-N-(prop-2-yn-1-yl)propanamide]	80 to 100	80 to 100		
	C#CCN(C(=O)CCS(=O)(=O)CC1CC1(F)F)c1sc(-c2cccnc2)nc1C (stereo not shown) [FA13, 3-(((2,2-Difluorocyclopropyl)methyl)sulfonyl)-N-(4-methyl-2-(pyridin-3-yl)thiazol-5-yl)-N-(prop-2-yn-1-yl)propanamide]	80 to 100	80 to 100		
	C#CCN(C(=O)OC(C)(C)C)c1sc(-c2cccnc2)nc1C [CA7, tert-Butyl (4-methyl-2-(pyridin-3-yl)thiazol-5-yl)(prop-2-yn-1-yl) carbamate]	80 to 100	80 to 100		
	2-Methyl-N-(4-methyl-2-(pyridin-3-yl)thiazol-5-yl)-3-(methylsulfinyl)-N-(prop-2-yn-1-yl) propanamide [Compound P5]			A (80-100)	A (80-100)
	4-Chloro-N-(prop-2-yn-1-yl)-2-(pyrimidin-5-yl)thiazol-5-amine hydrochloride [CA2]			B (More than 0-Less than 80)	B (More than 0-Less than 80)
	C#CCN(C(=O)C(C)CSC)c1sc(-c2cccnc2)nc1C (stereo not shown) [Compound P2, 2-Methyl-N-(4-methyl-2-(pyridin-3-yl)thiazol-5-yl)-3-(methylthio)-N-(prop-2-yn-1-yl) propanamide]	80 to 100	80 to 100		
	C#CCN(C(=O)OC(C)(C)C)c1sc(-c2cncc(F)c2)nc1Cl [CA9, tert-Butyl (4-chloro-2-(5-fluoropyridin-3-yl)thiazol-5-yl)(prop-2-yn-1-yl) carbamate]	80 to 100	80 to 100		
	C#CC(C)N(C(=O)CCSCC1CC1(F)F)c1sc(-c2cccnc2)nc1C (stereo not shown) [Compound P31, N-(But-3-yn-2-yl)-3-(((2,2-difluorocyclopropyl)methyl)thio)-N-(4-methyl-2-(pyridin-3-yl)thiazol-5-yl)propanamide]	80 to 100	80 to 100		
	C#CCN(C(=O)CC[S+]([O-])CC1CC1(F)F)c1sc(-c2cccnc2)nc1C (stereo not shown) [FA9, 3-(((2,2-Difluorocyclopropyl)methyl)sulfinyl)-N-(4-methyl-2-(pyridin-3-yl)thiazol-5-yl)-N-(prop-2-yn-1-yl)propanamide]	80 to 100	80 to 100		
	C#CCN(C(=O)CC[S+]([O-])CCC(F)(F)F)c1sc(-c2cccnc2)nc1Cl (stereo not shown) [FA6, N-(4-chloro-2-(pyridin-3-yl)thiazol-5-yl)-N-(prop-2-yn-1-yl)-3-((3,3,3trifluoropropyl)sulfinyl)propanamide]	80 to 100	80 to 100		
	C#CCN(C(=O)CCS(=O)(=O)CCC(F)(F)F)c1sc(-c2cncnc2)nc1Cl [FA12, N-(4-Chloro-2-(pyrimidin-5-yl)thiazol-5-yl)-N-(prop-2-yn-1-yl)-3-((3,3,3-trifluoropropyl)sulfonyl) propanamide]	80 to 100	80 to 100		
	C#CCN(C(=O)CCSCCC(F)(F)F)c1sc(-c2cccnc2)nc1Cl [FA1, N-(4-Chloro-2-(pyridin-3-yl)thiazol-5-yl)-N-(prop-2-yn-1-yl)-3-((3,3,3-trifluoropropyl)thio) propanamide]	80 to 100	80 to 100		
	C#CCN(C(=O)CSC)c1sc(-c2cccnc2)nc1Cl [Compound F4, N-(4-Chloro-2-(pyridin-3-yl)thiazol-5-yl)-2-(methylthio)-N-(prop-2-yn-1-yl)acetamide]	80 to 100	80 to 100		
	C#CC(C)N(C(=O)OC(C)(C)C)c1sc(-c2cccnc2)nc1C (stereo not shown) [CA12, tert-Butyl but-3-yn-2-yl(4-methyl-2-(pyridin-3-yl)thiazol-5-yl)carbamate]	80 to 100	80 to 100		
	C#CCN(C(=O)CC[S+](C)[O-])c1sc(-c2cccnc2)nc1C (stereo not shown) [Compound P3, N-(4-Methyl-2-(pyridin-3-yl)thiazol-5-yl)-3-(methylsulfinyl)-N-(prop-2-yn-1-yl)propanamide]	80 to 100	80 to 100		
	C#CCN(C(=O)CC[S+]([O-])CCC(F)(F)F)c1sc(-c2cccnc2)nc1C (stereo not shown) [Compound P7, N-(4-Methyl-2-(pyridin-3-yl)thiazol-5-yl)-N-(prop-2-yn-1-yl)-3-((3,3,3-trifluoropropyl)sulfinyl) propanamide]	80 to 100	80 to 100		
	C#CCN(C(=O)C(C)CSC)c1sc(-c2cncc(F)c2)nc1C (stereo not shown) [FA5, N-(2-(5-Fluoropyridin-3-yl)-4-methylthiazol-5-yl)-2-methyl-3-(methylthio)-N-(prop-2-yn-1-yl) propanamide]	80 to 100	80 to 100		
	CC#CCN(C(=O)CCSCCC(F)(F)F)c1sc(-c2cccnc2)nc1C [Compound P16, N-(But-2-yn-1-yl)-N-(4-methyl-2-(pyridin-3-yl)thiazol-5-yl)-3-((3,3,3-trifluoropropyl)thio) propanamide]	80 to 100	80 to 100		
	C#CCN(C(=O)CCSCC1CC1(F)F)c1sc(-c2cccnc2)nc1C (stereo not shown) [Compound P10, 3-(((2,2-Difluorocyclopropyl)methyl)thio)-N-(4-methyl-2-(pyridin-3-yl)thiazol-5-yl)-N-(prop-2-yn-1-yl)propanamide]	80 to 100	80 to 100		
